Results as given in patent US8840873B2, “Method of treating second and third degree burns using oxidative reductive potential water solution” (priority 2005, dated 2014).
Where two headings read alike, the source gives them in different places.

What was measured:
[1] = system: murine polychromatic erythrocytes (bone marrow); conditions: mice; for PCE/NCE ratio: intraperitoneal, cyclophosphamide 8 mg/mL, 12.5 ml/kg on day 2
Procedure: The mammalian in vivo micronucleus test is used for the identification of substances which cause damage to chromosomes or the mitotic apparatus of murine polychromatic erythrocytes. This damage results in the formation of “micronuclei,” intracellular structures containing lagging chromosome fragments or isolated whole chromosomes. […] The positive control mice received a single intraperitoneal injection of cyclophosphamide (8 mg/mL, 12.5 ml/kg) on day 2. All mice were observed immediately after injection for any adverse reactions. […] On day 3, all mice were weighed and terminated.
The femurs were excised from the terminated mice, the bone marrow was extracted, and duplicate smear preparations were performed for each mouse. The bone marrow slides for each animal were read at 40× magnification. The ratio of polychromatic erythrocytes (PCE) to normochromatic erythrocytes (NCE), an index of bone marrow toxicity, was determined for each mouse by counting a total of at least 200 erythrocytes. Then a minimum of 2000 scoreable PCE per mouse were evaluated for the incidence of micronucleated polychromatic erythrocytes. Statistical analysis of the data were done using the Mann and Whitney test (at 5% risk threshold) from a statistical software package (Statview 5.0, SAS Institute Inc., USA).

primary HDF cultures = experiment: SA-β-galactosidase expression in HDFs after chronic exposure; type: cell-based, human; conditions: 20 population doublings (one month), ORP water solution 10% or HP 5 μM
Text: The results are depicted in FIG. 6.

[2] = system: human diploid fibroblasts (HDFs); experiment: 8-OHdG DNA adducts in HDFs (ELISA); conditions: HP 500 μM
[3] = system: human diploid fibroblasts (HDFs); experiment: Cell viability, apoptosis and necrosis in HDFs by flow cytometry; conditions: for apoptosis (Annexin-V): 880 mM HP; for necrosis (cells incorporating propidium iodide) / Cell viability (7AAD): pure ORP water solution or 880 mM HP

SMILES | PCE/NCE ratio ([1]; females) | number of polychromatic erythrocytes bearing micronuclei ([1]; males, intraperitoneal 12.5 ml/kg) | PCE/NCE ratio ([1]; males) | cells expressing SA-β-Gal (primary HDF cultures) | 8-OHdG adducts relative to control-treated cells ([2]; 30 minutes treatment then 3 hour recovery in supplemented DMEM) | 8-OHdG adducts relative to control-treated cells ([2]; 30 minutes treatment, DNA extracted right after exposure) | apoptosis (Annexin-V) ([3]; 5 min exposure) | necrosis (cells incorporating propidium iodide) ([3]; 5 min exposure) | Cell viability (7AAD) ([3]; 5 minute exposure) | apoptosis (Annexin-V) ([3]; 30 min exposure) | Cell viability (7AAD) ([3]; 30 min exposure) | necrosis (cells incorporating propidium iodide) ([3]; 30 min exposure)
O=P1(N(CCCl)CCCl)NCCCO1 (stereo not drawn) [cyclophosphamide] | 0.73 | 11.0 | 0.77 | – | – | – | – | – | – | – | – | –
OO [HP, hydrogen peroxide] | – | – | – | 86% | about 5 times | about 25 fold | 15% | 20% | 55% | 20% | 5% | 75%
